From patent publication US6461997B1, “Triazole sulfones having herbicidal activity” (Monsanto Technology LLC, priority 1999, dated 2002)

How the values were obtained:
barley (HORVX) = assay: Selectivity test, PPI, cool season crop; assay type: in vivo, Hordeunm vulgare; conditions: Hordeum vulgare, PPI application, read-out: Percent inhibition HORVX
Protocol: (§1) A pre-prepared topsoil mixture (described above) was placed in a pot and compacted to a depth of 1.0 to 1.25 cm from the top of the pot. Seeds of each of several monocotyledonous and dicotyledonous annual plant species were placed on top of the soil. A sufficient quantity of soil to cover the seeds and level fill the pot was weighed into an open container. A known amount of the test compound was dissolved or suspended in an organic solvent and applied by spraying to this cover soil. The cover soil was thoroughly mixed to distribute the test compound throughout the cover soil, and was then applied as a cover layer over the seeds. Untreated soil was used as a cover layer for control pots. After treatment the plants were placed in a greenhouse where they received 0.64 cm of overhead irrigation. All subsequent watering consisted of a light overhead mist and/or subirrigation as needed for germination and growth. Tables 9 and 10 below relate to warm season plant species which were placed after pre-emergence treatment in a greenhouse with a 30/21° C. day/night temperature regime. Tables 11 and 12 below relates to cool season plant species placed after pre-emergence treatment in a greenhouse or growth chamber with an 18/13° C. day/night temperature regime. Only the compounds of Examples 1, 6, 8, 11, 13 and 15-20 were included in PPI tests.
(§2) Approximately 14 days after planting and treating, the plants were observed and herbicidal efficacy recorded as percent inhibition by comparison with untreated plants.
(§3) Additional pre-emergence and PPI tests were conducted by the procedures described above, on warm and cool season weed species in the presence of crop species, to assess herbicidal selectivity. Crop species included in warm season tests were corn (Zea mays, ZEAMX), rice (Oryza sativa, ORYSA) and soybean (Glycine max, GLYMX). Crop species included in cool season tests were wheat (Triticum aestivum, TRZAW), barley (Hordeunm vulgare, HORVX) and oilseed rape (Brassica napus, BRSNS).
(§4) Tables 15 and 16 relate to pre-emergence and PPI tests respectively on warm season species. Table 17 relates to pre-emergence tests on cool season species.

wheat (TRZAW) = assay: Selectivity test, PPI, cool season crop; assay type: in vivo, Triticum aestivum; conditions: Triticum aestivum, PPI application, read-out: Percent inhibition TRZAW
Protocol: as §1, §2, §3, §4

SASKR (russian thistle) = assay: Pre-plant incorporated (PPI) herbicidal activity, cool season; assay type: in vivo, Salsola kali
Protocol: (§5) In another set of tests, the pre-plant incorporated (PPI) activity of compounds of this invention was evaluated on the same species as for the pre-emergence tests described above. In the PPI tests the following procedure, designed to simulate PPI application, was used.
as §1, §2

corn (ZEAMX) = assay: Selectivity test, PPI, warm season crop; assay type: in vivo, Zea mays; conditions: Zea mays, PPI application, read-out: Percent inhibition ZEAMX
Protocol: as §1, §2, §3, §4

[1] = test system: GALAP (catchweed bedstraw); assay: Pre-plant incorporated (PPI) herbicidal activity, cool season; assay type: in vivo, Galium aparine
Protocol: as §5, §1, §2

SORVU (shattercane) = assay: Pre-plant incorporated (PPI) herbicidal activity, warm season; assay type: in vivo, Sorghum vulgare
Protocol: as §5, §1, §2

SINAR (wild mustard) = assay: Pre-plant incorporated (PPI) herbicidal activity, cool season; assay type: in vivo, Sinapis arvensis
Protocol: as §5, §1, §2

STEME (common chickweed) = assay: as above; assay type: in vivo, Stellaria media
Protocol: as §5, §1, §2

[2] = test system: LAMPU (purple deadnettle); assay: as above; assay type: in vivo, Lamium purpureum
Protocol: as §5, §1, §2

[3] = test system: AGRRE (quackgrass (seedling)); assay: as above; assay type: in vivo, Elymus repens
Protocol: as §5, §1, §2

[4] = test system: BRAPP (broadleaf signalgrass); assay: Pre-plant incorporated (PPI) herbicidal activity, warm season; assay type: in vivo, Brachiaria platyphylla
Protocol: as §5, §1, §2

SETVI (green foxtail) = assay: Pre-plant incorporated (PPI) herbicidal activity, cool season; assay type: in vivo, Setaria viridis
Protocol: as §5, §1, §2

SETFA (giant foxtail) = assay: Pre-plant incorporated (PPI) herbicidal activity, warm season; assay type: in vivo, Setaria faberi
Protocol: as §5, §1, §2

[5] = pre-plant incorporated, lowest tested rate with 80% or greater inhibition, about 14 days

## CCSC(F)(F)S(=O)(=O)c1ncn(C(=O)N(CC)CC)n1 [Example 8, 1-(N,N-diethylcarbamoyl)-3-[difluoro(ethylthio)methylsulfonyl]-1,2,4-triazole]
Barley (HORVX); 30 g/ha
  inhibition at 30 g/ha: 0%
Barley (HORVX); 100 g/ha
  inhibition at 100 g/ha: 0%
Barley (HORVX); 300 g/ha
  inhibition at 300 g/ha: 10%
Barley (HORVX); 900 g/ha
  inhibition at 900 g/ha: 60%
Wheat (TRZAW); 30 g/ha
  inhibition at 30 g/ha: 0%
Wheat (TRZAW); 100 g/ha
  inhibition at 100 g/ha: 0%
Wheat (TRZAW); 300 g/ha
  inhibition at 300 g/ha: 20%
Wheat (TRZAW); 900 g/ha
  inhibition at 900 g/ha: 60%
SASKR (russian thistle); Salsola kali, weed, PPI application, 30 g/ha, read-out: Percent inhibition SASKR
  inhibition at 30 g/ha: 0%
SASKR (russian thistle); Salsola kali, weed, PPI application, 100 g/ha, read-out: Percent inhibition SASKR
  inhibition at 100 g/ha: 50%
SASKR (russian thistle); Salsola kali, weed, PPI application, 300 g/ha, read-out: Percent inhibition SASKR
  inhibition at 300 g/ha: 90%
SASKR (russian thistle); Salsola kali, weed, PPI application, 900 g/ha, read-out: Percent inhibition SASKR
  inhibition at 900 g/ha: 100%
SASKR (russian thistle); [5]
  PPI activity GR80, SASKR: 100 g/ha
Corn (ZEAMX); 30 g/ha
  inhibition at 30 g/ha: 0%
Corn (ZEAMX); 100 g/ha
  inhibition at 100 g/ha: 5%
Corn (ZEAMX); 300 g/ha
  inhibition at 300 g/ha: 65%
Corn (ZEAMX); 900 g/ha
  inhibition at 900 g/ha: 95%
[1]; Galium aparine, weed, PPI application, 30 g/ha, read-out: Percent inhibition GALAP
  inhibition at 30 g/ha: 0%
[1]; Galium aparine, weed, PPI application, 100 g/ha, read-out: Percent inhibition GALAP
  inhibition at 100 g/ha: 100%
[1]; Galium aparine, weed, PPI application, 300 g/ha, read-out: Percent inhibition GALAP
  inhibition at 300 g/ha: 100%
[1]; Galium aparine, weed, PPI application, 900 g/ha, read-out: Percent inhibition GALAP
  inhibition at 900 g/ha: 100%
[1]; [5]
  PPI activity GR80, GALAP: 100 g/ha
SORVU (shattercane); Sorghum bicolor, PPI application, 30 g/ha, read-out: Percent inhibition SORVU
  inhibition at 30 g/ha: 50%
SORVU (shattercane); Sorghum bicolor, PPI application, 100 g/ha, read-out: Percent inhibition SORVU
  inhibition at 100 g/ha: 70%
SORVU (shattercane); Sorghum bicolor, PPI application, 300 g/ha, read-out: Percent inhibition SORVU
  inhibition at 300 g/ha: 100%
SORVU (shattercane); Sorghum bicolor, PPI application, 900 g/ha, read-out: Percent inhibition SORVU
  inhibition at 900 g/ha: 100%
SORVU (shattercane); [5]
  PPI activity GR80, SORVU: 300 g/ha
SINAR (wild mustard); Brassica, weed, PPI application, 30 g/ha, read-out: Percent inhibition SINAR
  inhibition at 30 g/ha: 100%
SINAR (wild mustard); Brassica, weed, PPI application, 100 g/ha, read-out: Percent inhibition SINAR
  inhibition at 100 g/ha: 95%
SINAR (wild mustard); Brassica, weed, PPI application, 300 g/ha, read-out: Percent inhibition SINAR
  inhibition at 300 g/ha: 100%
SINAR (wild mustard); Brassica, weed, PPI application, 900 g/ha, read-out: Percent inhibition SINAR
  inhibition at 900 g/ha: 80%
SINAR (wild mustard); [5]
  PPI activity GR80, SINAR: 100 g/ha
STEME (common chickweed); Stellaria media, weed, PPI application, 30 g/ha, read-out: Percent inhibition STEME
  inhibition at 30 g/ha: 80%
STEME (common chickweed); Stellaria media, weed, PPI application, 100 g/ha, read-out: Percent inhibition STEME
  inhibition at 100 g/ha: 80%
STEME (common chickweed); Stellaria media, weed, PPI application, 300 g/ha, read-out: Percent inhibition STEME
  inhibition at 300 g/ha: 95%
STEME (common chickweed); Stellaria media, weed, PPI application, 900 g/ha, read-out: Percent inhibition STEME
  inhibition at 900 g/ha: 99%
STEME (common chickweed); [5]
  PPI activity GR80, STEME: 30 g/ha
[2]; Lamium purpureum, weed, PPI application, 30 g/ha, read-out: Percent inhibition LAMPU
  inhibition at 30 g/ha: 80%
[2]; Lamium purpureum, weed, PPI application, 100 g/ha, read-out: Percent inhibition LAMPU
  inhibition at 100 g/ha: 100%
[2]; Lamium purpureum, weed, PPI application, 300 g/ha, read-out: Percent inhibition LAMPU
  inhibition at 300 g/ha: 90%
[2]; Lamium purpureum, weed, PPI application, 900 g/ha, read-out: Percent inhibition LAMPU
  inhibition at 900 g/ha: 100%
[2]; [5]
  PPI activity GR80, LAMPU: 100 g/ha
[3]; Elymus repens, weed, PPI application, 30 g/ha, read-out: Percent inhibition AGRRE
  inhibition at 30 g/ha: 0%
[3]; Elymus repens, weed, PPI application, 100 g/ha, read-out: Percent inhibition AGRRE
  inhibition at 100 g/ha: 40%
[3]; Elymus repens, weed, PPI application, 300 g/ha, read-out: Percent inhibition AGRRE
  inhibition at 300 g/ha: 70%
[3]; Elymus repens, weed, PPI application, 900 g/ha, read-out: Percent inhibition AGRRE
  inhibition at 900 g/ha: 100%
[3]; [5]
  PPI activity GR80, AGRRE: 300 g/ha
[4]; Urochloa platyphylla, PPI application, 30 g/ha, read-out: Percent inhibition BRAPP
  inhibition at 30 g/ha: 40%
[4]; Urochloa platyphylla, PPI application, 100 g/ha, read-out: Percent inhibition BRAPP
  inhibition at 100 g/ha: 70%
[4]; Urochloa platyphylla, PPI application, 300 g/ha, read-out: Percent inhibition BRAPP
  inhibition at 300 g/ha: 100%
[4]; Urochloa platyphylla, PPI application, 900 g/ha, read-out: Percent inhibition BRAPP
  inhibition at 900 g/ha: 100%
[4]; [5]
  PPI activity GR80, BRAPP: 30 g/ha
SETVI (green foxtail); Setaria viridis, weed, PPI application, 30 g/ha, read-out: Percent inhibition SETVI
  inhibition at 30 g/ha: 100%
SETVI (green foxtail); Setaria viridis, weed, PPI application, 100 g/ha, read-out: Percent inhibition SETVI
  inhibition at 100 g/ha: 100%
SETVI (green foxtail); Setaria viridis, weed, PPI application, 300 g/ha, read-out: Percent inhibition SETVI
  inhibition at 300 g/ha: 100%
SETVI (green foxtail); Setaria viridis, weed, PPI application, 900 g/ha, read-out: Percent inhibition SETVI
  inhibition at 900 g/ha: 100%
SETVI (green foxtail); [5]
  PPI activity GR80, SETVI: 30 g/ha
SETFA (giant foxtail); Setaria faberi, PPI application, 30 g/ha, read-out: Percent inhibition SETFA
  inhibition at 30 g/ha: 90%
SETFA (giant foxtail); Setaria faberi, PPI application, 100 g/ha, read-out: Percent inhibition SETFA
  inhibition at 100 g/ha: 100%
SETFA (giant foxtail); Setaria faberi, PPI application, 300 g/ha, read-out: Percent inhibition SETFA
  inhibition at 300 g/ha: 100%
SETFA (giant foxtail); Setaria faberi, PPI application, 900 g/ha, read-out: Percent inhibition SETFA
  inhibition at 900 g/ha: 100%
SETFA (giant foxtail); [5]
  PPI activity GR80, SETFA: 30 g/ha
